According to US11590071B2, “Injectable drug delivery implant composition and method of use thereof” (King Abdulaziz University, priority 2021, dated 2023):
Where a name gives a salt, the structure may show the parent alone.

Tests used:
[1] = In vivo drug release study (plasma DMF by HPLC after SC injection); set-up: species or system Albino Wistar rats; settings: rats, S.C.
Procedure: In vivo drug release study was also performed. Albino Wistar rats (275-300 g) were used in the study. Sterile polypropylene cages with paddy husk were used for the housing of experimental animals. Standard food pellets were given to the animals with water ad libitum. Uses of experimental animal were approved by the IAEC (JSSCP, S. S. Nagar, Mysore, India Code No: 132/2013) and for all the purpose of animal welfare the CPCSEA guidelines were followed.
The experimental animals were separated into groups of three and each group consisted of three animals. […] For injecting 0.5 mL of injectable gel, a syringe of 1 mL with the needle of 26-gauge was used.
For the In-vivo detection of Dimethyl Fumarate, an aliquot of blood was drawn from retro orbital sinus of each rat at specified blood collection times. 1.5 mL aliquot of blood from retro orbital sinus was collected in an EDTA coated Eppendorf tube. The tubes were centrifuged at 4° C. and 8000 rpm for 10 min to collect plasma. Plasma was separated into a separate eppendorf tube. Until the screening or assay of plasma samples by using HPLC, the sample was stored at −20° C.
All animals remained in good health throughout the acclimatization and study periods. The cumulative (±SD) plasma concentrations of DMF at the times of sample collection after SC are plotted in FIG. 8. Drug concentration was determined by using HPLC method. […]

rat subcutaneous tissue = test: Tissue biocompatibility study of DMF ISFI system (physical inspection for inflammation); assay type: in vivo, rats; settings: SC injection; visual observation
Procedure: Tissue biocompatibility study of DMF ISFI system was performed. Mice were separated into three groups i.e., positive control group, test group, negative control group and each group consist of three animals to assess the DMF and ISFI biocompatibility. All of the three groups received different drugs like first group received phosphate buffer of pH 7.4 dispersed DMF, test group was given both drug DMF with the ISFI and the last group were given only ISFI. For all physical signs of inflammation, all the animals were visually observed. Produces responses in experimental animals were graded as 0 for normal, + for mild symptoms, ++ for moderate and +++ used for the severe symptoms. After injecting the drugs in animals, one mouse per group was sacrificed at the interval of 3rd day, 7th day and 14th days. The adjacent tissues were excised and fixed in 10% formalin tamped with phosphate buffer. The tissue was under the observation of optical microscope after the hematoxylin and eosin staining process for the changes in acute inflammatory responses, fibrosis and foreign body reaction. (Anderson and Langone, 1999 and Park and Park, 1999).

COC(=O)/C=C/C(=O)OC [DMF, Dimethyl fumarate]
plasma concentration (final level) ([1]; pure drug 1 mg/0.2 mL, group III): non-detectable quantities
time after which plasma concentration falls ([1]; pure drug 2 mg/0.2 mL, Group I): 150 h
inflammatory reaction at physical inspection (rat subcutaneous tissue): highest inflammation
